Data as given in publication PMC10804372, “Degradation by Design: New Cyclin K Degraders from Old CDK Inhibitors” (ACS Chemical Biology, 2024).

How the values were obtained:
Cyclin K [1] = experiment: Cyclin K levels by Western blot after single-concentration treatment; assay type: cell-based, human; settings: HEK293T cells, 1 μM for 2 h; for cyclin K degradation: Western blot; for Remaining Cyclin K (%): quantified from Western blots, mean ± SD, three independent experiments
Method: (§1) HEK293T human […] kidney cells were cultured in DMEM (Gibco/Life Technologies), containing 25 mM D-glucose, 4 mM L-glutamine, and 1 mM sodium pyruvate, and supplemented with 10% (v/v) FBS and 1% nonessential amino acids (Gibco/Life Technologies). Cells were incubated at 37 °C in a humidified atmosphere with 5% CO2.
(§2) Cells were washed with PBS and lysed (20 mM HEPES pH 7.5, 10% glycerol, 0.4 M KCl, 0.4% Triton X-100, 15 mM EDTA, and 1× protease and phosphatase inhibitors). The insoluble fraction was removed by centrifugation. Protein quantification was performed using a Bradford assay and compared to a BSA calibration curve. Equal amounts of lysates were run on SDS–PAGE 4–12% Bis–Tris Protein Gels (NuPAGE, Thermo Fisher Scientific) and then transferred onto Immobilon-P PVDF Membrane (Millipore, IPVH00010) using a Mini Trans-Blot Cell (Bio-Rad, 1703930). The membranes were blocked with 5% bovine albumin serum (BSA) in Tris-buffered saline with Tween 20 (TBS-T) and incubated with primary antibodies overnight at 4 °C. The membranes were washed three times with TBS-T and incubated with HRP-conjugated secondary antibody (BioRad) for 2 h. Membranes were washed again three times with TBS-T before being developed using Pierce ECL Western Blotting Substrate (Thermo, 32106) and visualized using LI-COR. Antibodies were purchased from Cell Signaling Technology: anti-GAPDH (D4C6R) and anti-DDB1 (D4C8) or Bethyl Laboratories: anti-Cyclin K (A301-939A). The following HRP-linked secondary antibodies were used by dilution in 5% BSA/TBS-T: antirabbit IgG (BioRad, 5213–2504) and antimouse IgG (BioRad, 103005).
(§3) Unedited blots containing the marker lane are available on request. Western blots were quantified using ImageJ. Cyclin K levels were normalized using GAPDH as a loading control. DC50 values were calculated from concentration–response curves using nonlinear regression fit to a 4-parameter curve by GraphPad Prism.

Cyclin K [2] = experiment: Cyclin K degradation concentration-response (DC50, DMax) by Western blot; assay type: cell-based, human; settings: for DMax (%) / DC50: HEK293T, Western blot quantification, 3 biological repeats; for DC50: read-out: CycK DC50; for fold decrease in degradation ability versus pyridine counterpart: furan analogues vs 1 (CR8), 36, 40
Method: With the aim of comparing the degradation ability of the new analogues, we derived DC50 values by using Western blotting (Table 5). […] This approach has been previously used to improve the potency of BCL6 degraders.[33] We therefore also measured CDK12 affinity using the KINOMEscan binding assay (Table 5).[34]
as §1, §2, §3

CDK12 = molecular target: T1, CDK12 (Homo sapiens, UniProt Q9NYV4); experiment: KINOMEscan binding assay (Eurofins DiscoverX); settings: for Kd: KINOMEscan
T1 construct: purchased Eurofins DiscoverX (KINOMEscan service)
T1 sequence (Q9NYV4 whole entry): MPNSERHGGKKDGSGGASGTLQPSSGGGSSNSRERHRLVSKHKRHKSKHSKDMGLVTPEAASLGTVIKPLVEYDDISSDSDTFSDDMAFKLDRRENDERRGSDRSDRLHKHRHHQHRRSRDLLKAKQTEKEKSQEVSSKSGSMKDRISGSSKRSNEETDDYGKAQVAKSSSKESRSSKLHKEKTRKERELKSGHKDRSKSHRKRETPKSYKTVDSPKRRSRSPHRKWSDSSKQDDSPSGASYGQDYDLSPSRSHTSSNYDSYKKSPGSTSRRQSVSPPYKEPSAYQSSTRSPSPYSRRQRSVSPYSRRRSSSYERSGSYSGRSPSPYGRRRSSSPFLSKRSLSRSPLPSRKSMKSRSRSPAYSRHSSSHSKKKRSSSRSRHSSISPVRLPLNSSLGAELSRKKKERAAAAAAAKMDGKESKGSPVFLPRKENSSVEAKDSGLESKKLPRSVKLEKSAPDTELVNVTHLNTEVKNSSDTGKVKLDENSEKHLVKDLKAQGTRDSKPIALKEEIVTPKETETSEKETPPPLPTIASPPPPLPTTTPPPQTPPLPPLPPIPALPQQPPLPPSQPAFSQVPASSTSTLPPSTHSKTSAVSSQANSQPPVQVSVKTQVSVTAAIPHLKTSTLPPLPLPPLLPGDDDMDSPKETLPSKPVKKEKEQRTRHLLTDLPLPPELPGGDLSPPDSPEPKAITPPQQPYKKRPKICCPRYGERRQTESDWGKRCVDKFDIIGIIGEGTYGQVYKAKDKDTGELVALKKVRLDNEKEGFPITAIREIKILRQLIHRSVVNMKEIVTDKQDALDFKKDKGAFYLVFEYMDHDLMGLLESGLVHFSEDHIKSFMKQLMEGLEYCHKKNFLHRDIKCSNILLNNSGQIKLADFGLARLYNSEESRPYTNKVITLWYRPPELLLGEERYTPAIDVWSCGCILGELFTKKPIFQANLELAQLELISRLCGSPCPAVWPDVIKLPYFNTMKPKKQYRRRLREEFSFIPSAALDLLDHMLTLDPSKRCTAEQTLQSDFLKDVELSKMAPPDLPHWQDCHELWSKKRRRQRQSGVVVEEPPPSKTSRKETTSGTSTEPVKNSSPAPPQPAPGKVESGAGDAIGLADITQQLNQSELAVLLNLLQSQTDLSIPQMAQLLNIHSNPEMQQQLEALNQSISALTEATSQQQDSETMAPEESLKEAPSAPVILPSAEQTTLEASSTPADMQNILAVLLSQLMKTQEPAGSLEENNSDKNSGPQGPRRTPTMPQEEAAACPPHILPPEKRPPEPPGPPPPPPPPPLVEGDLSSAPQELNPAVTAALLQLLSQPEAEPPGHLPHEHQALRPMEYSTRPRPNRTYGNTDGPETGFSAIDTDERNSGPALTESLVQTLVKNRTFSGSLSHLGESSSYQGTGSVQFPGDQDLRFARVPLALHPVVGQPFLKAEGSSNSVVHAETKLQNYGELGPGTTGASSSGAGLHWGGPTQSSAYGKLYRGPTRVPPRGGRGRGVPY

| SMILES | cyclin K degradation (Cyclin K [1]) | Remaining Cyclin K (%) (Cyclin K [1]) | other results |
| --- | --- | --- | --- |
| CC[C@H](CO)Nc1nc(NCc2ccc(-c3ccccc3)cc2)c2ncn(C(C)C)c2n1 [compound 3] | comparable to that of CR8 | 8 ± 7 | – |
| CC[C@H](CO)Nc1nc(NCc2ccc(-c3cccnc3)cc2)c2ncn(C(C)C)c2n1 [compound 4] | comparable to that of CR8 | 6 ± 4 | – |
| CC[C@H](CO)Nc1nc(NCc2ccc(-c3ccncc3)cc2)c2ncn(C(C)C)c2n1 [compound 5] | comparable to that of CR8 | 9 ± 6 | – |
| CC[C@H](CO)Nc1nc(NCc2ccc(-c3ccc(F)cn3)cc2)c2ncn(C(C)C)c2n1 [compound 6] | reduction in degradation activity | 42 ± 8 | – |
| CC[C@H](CO)Nc1nc(NCc2ccc(-c3ccc(C)cn3)cc2)c2ncn(C(C)C)c2n1 [compound 7] | abrogated degradation further | 93 ± 6 | – |
| CC[C@H](CO)Nc1nc(NCc2ccc(-c3ccc(CC(C)C)cc3)cc2)c2ncn(C(C)C)c2n1 [compound 9] | – | 79 ± 22 | – |
| CC[C@H](CO)Nc1nc(NCc2ccc(-c3ccc(C(=O)NC45CC6CC(CC(C6)C4)C5)cn3)cc2)c2ncn(C(C)C)c2n1 [compound 10] | – | 94 ± 8 | – |
| CC[C@H](CO)Nc1nc(NCc2ccc(-c3cccc(F)n3)cc2)c2ncn(C(C)C)c2n1 [compound 11] | complete degradation | 2 ± 3 | – |
| CC[C@H](CO)Nc1nc(NCc2ccc(-c3cccc(C)n3)cc2)c2ncn(C(C)C)c2n1 [compound 12] | complete degradation | 4 ± 4 | DMax (%) (Cyclin K [2]): >95%; DC50 (Cyclin K [2]): 106 nM; Kd (CDK12): 220 nM |
| CC[C@H](CO)Nc1nc(NCc2ccc(-c3cc(F)ccn3)cc2)c2ncn(C(C)C)c2n1 [compound 13] | – | 3 ± 2 | – |
| CC[C@H](CO)Nc1nc(NCc2ccc(-c3cc(C)ccn3)cc2)c2ncn(C(C)C)c2n1 [compound 14] | – | 1 ± 0 | – |
| CCc1ccnc(-c2ccc(CNc3nc(N[C@H](CC)CO)nc4c3ncn4C(C)C)cc2)c1 [compound 16] | able to successfully induce degradation | 6 ± 4 | – |
| CC[C@H](CO)Nc1nc(NCc2ccc(-c3cc(C#N)ccn3)cc2)c2ncn(C(C)C)c2n1 [compound 17] | able to successfully induce degradation | 2 ± 2 | – |
| CC[C@H](CO)Nc1nc(NCc2ccc(-c3ncccc3F)cc2)c2ncn(C(C)C)c2n1 [compound 18] | able to induce degradation | 17 ± 13 | – |
| CC[C@H](CO)Nc1nc(NCc2ccc(-c3ncccc3C)cc2)c2ncn(C(C)C)c2n1 [compound 19] | reduced degradation ability compared to CR8 | 37 ± 16 | – |
| CC[C@H](CO)Nc1nc(NCc2ccc(C3=CCCCC3)cc2)c2ncn(C(C)C)c2n1 [compound 22] | partial degradation | 22 ± 5 | – |

| SMILES | cyclin K degradation (Cyclin K [1]) | Remaining Cyclin K (%) (Cyclin K [1]) | other results |
| --- | --- | --- | --- |
| CC[C@H](CO)Nc1nc(NCc2ccc(N3CCNCC3)cc2)c2ncn(C(C)C)c2n1 [compound 24] | significantly reduced degradation ability | 86 ± 20 | – |
| CC[C@H](CO)Nc1nc(NCc2ccc(C3=CCCC3)cc2)c2ncn(C(C)C)c2n1 [compound 26] | complete cyclin K degradation | 5 ± 4 | – |
| CC[C@H](CO)Nc1nc(NCc2ccc(C3CCCC3)cc2)c2ncn(C(C)C)c2n1 [compound 27] | only partial degradation | 31 ± 16 | – |
| CC[C@H](CO)Nc1nc(NCc2ccc(-c3ccoc3)cc2)c2ncn(C(C)C)c2n1 [compound 28] | complete degradation | 2 ± 2 | – |
| CC[C@H](CO)Nc1nc(NCc2ccc(C)cc2)c2ncn(C(C)C)c2n1 [compound 32] | little to no degradation | 89 ± 8 | – |
| CC[C@H](CO)Nc1nc(NCc2ccc(Br)cc2)c2ncn(C(C)C)c2n1 [compound 33] | little to no degradation | 73 ± 29 | – |
| C=Cc1ccc(CNc2nc(N[C@H](CC)CO)nc3c2ncn3C(C)C)cc1 [compound 34] | little to no degradation | 63 ± 22 | – |
| CCc1ccc(CNc2nc(N[C@H](CC)CO)nc3c2ncn3C(C)C)cc1 [compound 35] | little to no degradation | 90 ± 14 | – |
| OCCC1CCCCN1c1cc(NCc2ccc(-c3ccccn3)cc2)n2ncc(Br)c2n1 (centres unmarked) [compound 36] | – | 2 ± 1 | improvement in degradation as measured by DC50 versus compound 1 (Cyclin K [2]; 36 vs 1): fivefold; DMax (%) (Cyclin K [2]): >95%; DC50 (Cyclin K [2]): 10 nM; fold better CDK12 affinity versus CR8/seliciclib-core analogue (CDK12; 36 vs 1, 37 vs 21): 100 fold; Kd (CDK12): 4 nM |
| Cc1ccnc(-c2ccc(CNc3cc(N4CCCCC4CCO)nc4c(Br)cnn34)cc2)c1 (centres unmarked) [compound 38] | – | 3 ± 4 | – |
| OCCC1CCCCN1c1cc(NCc2ccc(-c3ccco3)cc2)n2ncc(Br)c2n1 (centres unmarked) [compound 39] | – | 4 ± 4 | DMax (%) (Cyclin K [2]): >95%; DC50 (Cyclin K [2]): 72 nM; fold decrease in degradation ability versus pyridine counterpart (Cyclin K [2]): 4–8 fold; Kd (CDK12): 17 nM |
| O=C(NCc1ccc(-c2ccccn2)cc1)c1n[nH]cc1NC(=O)c1c(Cl)cccc1Cl [compound 40] | – | 1 ± 1 | DMax (%) (Cyclin K [2]): >95%; DC50 (Cyclin K [2]): 21 nM; fold difference (weaker) in CDK12 binding affinity versus compound 36 (CDK12; 40 vs 36): 250 fold; Kd (CDK12): 1000 nM |
| O=C(NCc1ccc(-c2ccco2)cc1)c1n[nH]cc1NC(=O)c1c(Cl)cccc1Cl [compound 42] | – | 20 ± 14 | DMax (%) (Cyclin K [2]): >95%; DC50 (Cyclin K [2]): 168 nM; fold decrease in degradation ability versus pyridine counterpart (Cyclin K [2]): 4–8 fold; Kd (CDK12): 1000 nM |
| OCCC1CCCCN1c1cc(NCc2ccccc2)n2ncc(Br)c2n1 (centres unmarked) [compound 43] | – | – | Kd (CDK12): 10 nM |
| O=C(NCc1ccccc1)c1n[nH]cc1NC(=O)c1c(Cl)cccc1Cl [compound 44] | – | – | Kd (CDK12): 5500 nM |
